Reference: patent US8178552B2, “7-Azaindole derivatives and their use in the inhibition of c-Jun N-terminal kinase” (Eisai R&D Management Co., Ltd., priority 2008, dated 2012)

Molecular target: JNK3 (Homo sapiens, UniProt P53779)
Assay: JNK3 SPA assay
Assay type: biochemical
Settings: 3.33 μM ATP, GST-c-Jun substrate; read-out: IC50 against JNK3
Procedure: JNK1, JNK2, JNK3—SPA Assay
JNK1, JNK2, JNK3—SPA Assay • 1. Compound is dissolved in DMSO to a convenient concentration and this is diluted in 10% DMSO to a five times concentrate of the desired starting concentration (frequently 1:100). • 2. 10 μl of 500 mM EDTA is added to alternative wells of the Opti-plate row, which will receive kinase reaction plus DMSO. This creates the negative control. • 3. For the JNK2 and JNK3 assay, compounds are prepared in six 2-fold dilutions with water and each concentration is tested in duplicate. For the JNK1 assay compounds are prepared in four 5-fold dilutions with water which are tested in triplicate. Controls are treated identically. • 4. 20 μl per well of each compound concentration is transferred to an Opti-plate, in duplicate. • 5. 30 μl (JNK2/3 SPA) or 50 μl (JNK1 SPA) of substrate solution (25 mM HEPES pH 7.5, 10 mM magnesium acetate with 3.33 μM ATP (JNK2/3) or 2 μM ATP (JNK1), approximately 7.5 kBq [γ-^33P] ATP, GST-c-Jun, in water) is added to each well. • 6. 50 μl (JNK2/3 SPA) or 30 μl (JNK1 SPA) of kinase solution (JNK in 25 mM HEPES pH 7.5, 10 mM Mg Acetate) is added to each well.
• 7. The plate is incubated for 30 minutes at room temperature. • 8. 100 μl of bead/stop solution is added to each well (5 mg/ml glutathione-PVT-SPA beads, 40 mM ATP in PBS). • 9. Plates are sealed and incubated for 30 minutes at room temperature, centrifuged for 10 minutes at 2500 g and counted. • 10. The IC50 values are calculated as the concentration of the compound being tested at which the phosphorylation of c-Jun is decreased to 50% of the control value.

JNK3, sequence (P53779 whole entry, species assumed): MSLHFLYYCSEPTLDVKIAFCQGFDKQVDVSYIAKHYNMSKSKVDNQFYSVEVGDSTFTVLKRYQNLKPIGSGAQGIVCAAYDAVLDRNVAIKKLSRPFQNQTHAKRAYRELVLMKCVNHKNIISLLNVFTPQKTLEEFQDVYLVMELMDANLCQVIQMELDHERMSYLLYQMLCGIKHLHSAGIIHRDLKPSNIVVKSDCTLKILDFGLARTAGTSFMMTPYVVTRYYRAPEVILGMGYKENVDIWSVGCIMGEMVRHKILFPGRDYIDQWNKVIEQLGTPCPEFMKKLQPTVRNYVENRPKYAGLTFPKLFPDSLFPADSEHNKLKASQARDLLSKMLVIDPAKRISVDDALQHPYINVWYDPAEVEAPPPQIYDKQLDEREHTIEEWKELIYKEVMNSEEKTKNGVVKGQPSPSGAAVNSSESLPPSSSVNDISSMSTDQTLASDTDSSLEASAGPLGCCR

Row | Compound | IC50 [nM]
1 | COC1(c2cnc3[nH]cc(-c4cnn(C)c4)c3c2)CCCC1 [Compound I-63, 5-(1-methoxycyclopentyl)-3-(1-methyl-1H-pyrazol-4-yl)-1H-pyrrolo[2,3-b]pyridine] | 468
2 | Cn1cc(-c2c[nH]c3ncc(C4CC5CC4C(CO)C5CO)cc23)cn1 (centres unmarked) [Compound I-140, (5-(3-(1-methyl-1H-pyrazol-4-yl)-1H-pyrrolo[2,3-b]pyridin-5-yl)bicyclo[2.2.1]heptane-2,3-diyl)dimethanol] | 87
3 | CCOCCN[C@H]1CC[C@H](c2cnc3[nH]cc(-c4cnn(C)c4)c3c2)CC1 [Compound I-119, (1r,4r)-N-(2-ethoxyethyl)-4-(3-(1-methyl-1H-pyrazol-4-yl)-1H-pyrrolo[2,3-b]pyridin-5-yl)cyclohexanamine] | 257
4 | c1nn(CCN2CCOCC2)cc1-c1c[nH]c2ncc([C@H]3CC[C@H](N4CCOCC4)CC3)cc12 [Compound I-57, 4-(2-(4-(5-((1r,4r)-4-morpholinocyclohexyl)-1H-pyrrolo[2,3-b]pyridin-3-yl)-1H-pyrazol-1-yl)ethyl)morpholine] | 417
5 | Cn1cc(-c2c[nH]c3ncc(C4=CC5(CC4)OCCO5)cc23)cn1 [Compound I-51, 3-(1-methyl-1H-pyrazol-4-yl)-5-(1,4-dioxaspiro[4.4]non-6-en-7-yl)-1H-pyrrolo[2,3-b]pyridine] | 191
6 | Mixture of 3-(1-methyl-1H-pyrazol-4-yl)-5-(3,5,5-trimethylcyclohex-1-enyl)-1H-pyrrolo[2,3-b]pyridine and 3-(1-methyl-1H-pyrazol-4-yl)-5-(3,3,5-trimethylcyclohex-1-enyl)-1H-pyrrolo[2,3-b]pyridine [Compound I-68] | 760
7 | Cn1cc(-c2c[nH]c3ncc(C4=C[C@H]5O[C@@H]4C[C@H]5C#N)cc23)cn1 [I-155 endo, (1R,2S,4R)-5-(3-(1-methyl-1H-pyrazol-4-yl)-1H-pyrrolo[2,3-b]pyridin-5-yl)-7-oxabicyclo[2.2.1]hept-5-ene-2-carbonitrile] | 174
8 | CC1CCCCC1c1cnc2[nH]cc(-c3cnn(C)c3)c2c1 (mixture of isomers) [Compound I-33, 3-(1-methyl-1H-pyrazol-4-yl)-5-(2-methylcyclohexyl)-1H-pyrrolo[2,3-b]pyridine] | 110
9 | Cn1cc(-c2c[nH]c3ncc(C4=CCC(C)(C)C=C4)cc23)cn1 [Compound I-21, 5-(4,4-dimethylcyclohexa-1,5-dienyl)-3-(1-methyl-1H-pyrazol-4-yl)-1H-pyrrolo[2,3-b]pyridine] | 49
10 | Cn1cc(-c2c[nH]c3ncc([C@H]4CC[C@H](NC5CCOCC5)CC4)cc23)cn1 [Compound I-127, N-((1 r,4r)-4-(3-(1-methyl-1H-pyrazol-4-yl)-1H-pyrrolo[2,3-b]pyridin-5-yl)cyclohexyl)tetrahydro-2H-pyran-4-amine] | 398
11 | Cn1cc(-c2c[nH]c3ncc([C@H]4CC[C@H](C(=O)O)CC4)cc23)cn1 [Compound I-76, (1r,4r)-4-(3-(1-methyl-1H-pyrazol-4-yl)-1H-pyrrolo[2,3-b]pyridin-5-yl)cyclohexanecarboxylic acid] | 251
12 | Cn1cc(-c2c[nH]c3ncc([C@H]4CC[C@@H](N5CC[C@H](F)C5)CC4)cc23)cn1 [Compound I-49, 5-((1R,4s)-4-((S)-3-fluoropyrrolidin-1-yl)cyclohexyl)-3-(1-methyl-1H-pyrazol-4-yl)-1H-pyrrolo[2,3-b]pyridine] | 316
13 | CCCN(CCO)[C@H]1CC[C@H](c2cnc3[nH]cc(-c4cnn(C)c4)c3c2)CC1 [Compound I-125, 2-(((1r,4r)-4-(3-(1-methyl-1H-pyrazol-4-yl)-1H-pyrrolo[2,3-b]pyridin-5-yl)cyclohexyl)(propyl)amino)ethanol] | 263
14 | Cn1cc(-c2c[nH]c3ncc(C4=CCC(c5ccccc5)CC4)cc23)cn1 (centres unmarked) [Compound I-27, 3-(1-methyl-1H-pyrazol-4-yl)-5-(4-phenylcyclohex-1-enyl)-1H-pyrrolo[2,3-b]pyridine] | 155
15 | Cn1cc(-c2c[nH]c3ncc([C@H]4CC[C@H](CO)CC4)cc23)cn1 [Compound I-74, ((1r,4r)-4-(3-(1-methyl-1H-pyrazol-4-yl)-1H-pyrrolo[2,3-b]pyridin-5-yl)cyclohexyl)methanol] | 63
16 | Cn1cc(-c2c[nH]c3ncc([C@H]4CC[C@H](N5CCC(F)(F)C5)CC4)cc23)cn1 [Compound I-47, 5-((1r,4r)-4-(3,3-difluoropyrrolidin-1-yl)cyclohexyl)-3-(1-methyl-1H-pyrazol-4-yl)-1H-pyrrolo[2,3-b]pyridine] | 93

Row | Compound | IC50 [nM]
17 | Cn1cc(-c2c[nH]c3ncc([C@H]4CC[C@@H](N5CCC(F)(F)C5)CC4)cc23)cn1 [Compound I-48, 5-((1s,4s)-4-(3,3-difluoropyrrolidin-1-yl)cyclohexyl)-3-(1-methyl-1H-pyrazol-4-yl)-1H-pyrrolo[2,3-b]pyridine] | 182
18 | Cn1cc(-c2c[nH]c3ncc(C4CCCCCC4)cc23)cn1 [Compound I-17, 5-cycloheptyl-3-(1-methyl-1H-pyrazol-4-yl)-1H-pyrrolo[2,3-b]pyridine] | 162
19 | CCCN(CCOC)[C@H]1CC[C@H](c2cnc3[nH]cc(-c4cnn(C)c4)c3c2)CC1 [Compound I-121, (1r,4r)-N-(2-methoxyethyl)-4-(3-(1-methyl-1H-pyrazol-4-yl)-1H-pyrrolo[2,3-b]pyridin-5-yl)-N-propylcyclohexanamine] | 363
20 | c1nn(CCN2CCOCC2)cc1-c1c[nH]c2ncc(C3CCCC3)cc12 [Compound I-64, 5-Cyclopentyl-3-[1-(2-morpholin-4-yl-ethyl)-1H-pyrazol-4-yl]-1H-pyrrolo[2,3-b]pyridine] | 158
21 | CN(C)[C@H]1CC[C@H](c2cnc3[nH]cc(-c4cnn(CCN5CCOCC5)c4)c3c2)CC1 [Compound I-60, (1r,4r)-N,N-dimethyl-4-(3-(1-(2-morpholinoethyl)-1H-pyrazol-4-yl)-1H-pyrrolo[2,3-b]pyridin-5-yl)cyclohexanamine] | > 500
22 | Cn1cc(-c2c[nH]c3ncc(C4CCC(c5ccccc5)CC4)cc23)cn1 (mixture of isomers) [Compound I-35, 3-(1-methyl-1H-pyrazol-4-yl)-5-(4-phenylcyclohexyl)-1H-pyrrolo[2,3-b]pyridine] | 91
23 | CN1C2CC3CC(C2)C(O)C1(c1cnc2[nH]cc(-c4cnn(C)c4)c2c1)C3 (centres unmarked) [Compound I-153] | 288
24 | Cn1cc(-c2c[nH]c3ncc([C@@H]4C[C@H]5O[C@@H]4CC5C#N)cc23)cn1 (stereo partly drawn) [Compound I-157, (1R,4R,5S)-5-(3-(1-methyl-1H-pyrazol-4-yl)-1H-pyrrolo[2,3-b]pyridin-5-yl)-7-oxabicyclo[2.2.1]heptane-2-carbonitrile] | 295
25 | Cn1cc(-c2c[nH]c3ncc([C@H]4CC[C@H](NCCO)CC4)cc23)cn1 [Compound I-129, 2-((1r,4r)-4-(3-(1-methyl-1H-pyrazol-4-yl)-1H-pyrrolo[2,3-b]pyridin-5-yl)cyclohexylamino)ethanol] | 191
26 | CN[C@@H]1C[C@H]2C=C(c3cnc4[nH]cc(-c5cnn(C)c5)c4c3)C[C@H](C2)C1 (relative stereo) [Compound I-151, trans N-methyl-7-(3-(1-methyl-1H-pyrazol-4-yl)-1H-pyrrolo[2,3-b]pyridin-5-yl)bicyclo[3.3.1]non-6-en-3-amine] | 347
27 | CCCN(CCO)[C@H]1CC[C@@H](c2cnc3[nH]cc(-c4cnn(C)c4)c3c2)CC1 [Compound I-126, 2-(((1s,4s)-4-(3-(1-methyl-1H-pyrazol-4-yl)-1H-pyrrolo[2,3-b]pyridin-5-yl)cyclohexyl)(propyl)amino)ethanol] | 281
28 | Cn1cc(-c2c[nH]c3ncc(C4=CC5CC(O)CC(C4)C5)cc23)cn1 (centres unmarked) [Compound I-147, 7-(3-(1-methyl-1H-pyrazol-4-yl)-1H-pyrrolo[2,3-b]pyridin-5-yl)bicyclo[3.3.1]non-6-en-3-ol] | > 1000
29 | COCCN[C@H]1CC[C@H](c2cnc3[nH]cc(-c4cnn(C)c4)c3c2)CC1 [Compound I-111, (1r,4r)-N-(2-methoxyethyl)-4-(3-(1-methyl-1H-pyrazol-4-yl)-1H-pyrrolo[2,3-b]pyridin-5-yl)cyclohexanamine] | 263
30 | Cn1cc(-c2c[nH]c3ncc(C4CCC(N5CCC5)CC4)cc23)cn1 (centres unmarked) [Compound I-41, 5-(4-(azetidin-1-yl)cyclohexyl)-3-(1-methyl-1H-pyrazol-4-yl)-1H-pyrrolo[2,3-b]pyridine] | 103
31 | CN1C2C=C(c3cnc4[nH]cc(-c5cnn(C)c5)c4c3)CC1CC2 (centres unmarked) [Compound I-143, 3-(1-methyl-1H-pyrazol-4-yl)-5-(8-methyl-8-azabicyclo[3.2.1]oct-3-en-3-yl)-1H-pyrrolo[2,3-b]pyridine] | > 500
32 | Cn1cc(-c2c[nH]c3ncc(C4=CCC5(CC4)OCCO5)cc23)cn1 [Compound I-14, 5-(1,4-Dioxa-spiro[4.5]dec-7-en-8-yl)-3-(1-methyl-1H-pyrazol-4-yl)-1H-pyrrolo[2,3-b]pyridine] | 224
